Laboratory results taken from patent publication US11802110B2, “2-amino-N-(arylsulfinyl)-acetamide compounds as inhibitors of bacterial aminoacyl-tRNA synthetase” (priority 2016, dated 2023).
In brackets after ≈: the same amount, converted by molar mass. Read-outs that look alike come from different tables or passages of the source.

Key:
[1] = Human cell viability (cytotoxicity), ATP levels by CellTiter-Glo; assay type: cell-based; settings: HepG2 cells (ATCC HB-8065), 24 hours incubation, read-out: IC50 (μg/mL), Cytotoxicity in HepG2 ATCC HB-8065 Cell Line
Experimental: Compounds were assessed for potential non-specific cytotoxic effects against a human hepatic cell line (HepG2 ATCC HB-8065). 96-well plates were seeded with HepG2 cells in concentration of 15,000 cells per well in 100 μL of MEM growth media completed with 1% NEAA and 1% sodium pyruvate. Border wells were filled with 100 μL of sterile PBS. Two days upon cells incubation, the compounds were added. Compound dilutions were prepared in 96-well V-bottom plate in pure DMSO. Growth media from 5 plates were aspirated and replaced with 98.7 μL of fresh growth media. 1.28 μL of compounds prepared in V-bottom plates were transferred with multichannel pipette into test plates (78.1× dilution). Final DMSO concentration was 1.28% per well. In control wells, 1.28 μL of DMSO was added in 98.7 μL of media. Compounds were tested in duplicates. Cells were incubated with compounds for 24 hours when cell viability was assessed by measuring ATP levels. ATP levels were measured by adding 50 μL of CellTiter-Glo reagent to each well and after 5 minutes of incubation luminescence was measured with SpectraMax i3. The potential effect of tested compounds on cell viability was determined by comparing the signal obtained in presence of different concentrations of the compounds with those obtained in the presence of DMSO only. The potential effects were then calculated and presented as IC50 values (μg/mL).

E. Coli LeuRS = E. Coli LeuRS (Escherichia coli (strain K12), UniProt P07813); experiment: Study 2 - Isothermal titration calorimetry (ITC); assay type: binding; settings: 25° C., pH 7.5, mean ± SD
Experimental: Escherichia coli BL21(DE3) cells transformed with plasmid pQE-60 containing the open-reading frame sequence of one targeted aaRS (i.e., LeuRS) were induced with 1 mM IPTG (isopropyl β-D-1-thiogalactopyranoside) for 3 hours at 37° C. Bacterial cells were harvested and lysed with 20 mM HEPES (4-(2-hydroxyethyl)-1-piperazinylethane-sulfonic acid) (pH 7.5), 300 mM NaCl, 15 mM imidazole and 1 mM DTT (1,4-dithio-D-threitol). The pathogenic aaRS was first purified by nickel affinity standard chromatography. The eluted protein was concentrated and then further purified by gel filtration using 50 mM HEPES (pH 7.5), 150 mM NaCl buffer.
ITC studies were carried out using a Microcal ITC200 instrument (GE Healthcare). Protein concentration was determined by spectrophotometry by measuring the absorbance at 280 nm using a theoretical molar extinction coefficient of 169,140 M^−1cm^−1. Ligand stock solutions were prepared in DMSO at 62.5 mM concentration. The titrations were performed at 25° C. with 7.5-100 μM E. Coli LeuRS in 50 mM HEPES, 150 mM NaCl, pH 7.5 buffer containing 1% DMSO (v/v). The protein solution in the 280 μL sample cell was titrated with the inhibitor solution (diluted to 75-3000 μM in the same buffer as the protein) using 1-2 μL injections every 120-140 seconds. All titrations were repeated at least two times. To correct for heats of dilution and mixing, the final baseline consisting of small peaks of identical size at the end of each experiment was subtracted. The experimental data were fitted to a theoretical titration curve (one site model) using MicroCal Origin 7 SR4 software.
Note that Compounds R-4.1 and S-4.1 (in Table 15, below) correspond to Compounds V-i and V-ii (in Tables 13 and 14, above), respectively.

[2] = test system: Pseudomonas aeruginosa ATCC 27853; experiment: Study 4 - MIC by broth micro-dilution (CLSI); assay type: cell-based; settings: Pseudomonas aeruginosa, ATCC27853
Experimental: (§1) Minimum Inhibitory Concentrations (MICs) were determined by the broth micro-dilution method performed according to Clinical Laboratory Standards Institute guidelines. For testing, 5 mg/mL DMSO solutions were prepared by dissolving solids in DMSO. Standard antibiotics were prepared according to CLSI guidelines as 5 mg/mL stock solutions. Upon DMSO stock solutions preparation, the working solutions in MH media were prepared by adding 38.4 μL of stock solution to 1461.6 μL of MH media. Out of these working solutions 100 μL were transferred to wells in the third column of 96-well assay plates. Assay plates were previously filled with 50 μL of MH media in all wells except for the wells in the third column. Upon compounds and antibiotics addition, 50 μL was transferred from the third to the fourth column, then from the fourth to the fifth and so on.
(§2) MIC value was determined by visual inspection of bacterial growth within 96-well plates. The first column in which there was no visible growth of bacteria was determined as MIC value for compound or antibiotic tested in that particular row. ATCC strains were used as reference strains for which there is a determined value of MIC values for standard antibiotics. The assay is considered valid when MIC values for standard antibiotics are within CLSI designated range for ATCC strain tested.

[3] = test system: Klebsiella pneumoniae ATCC 700603; experiment: Study 4 - MIC by broth micro-dilution (CLSI); assay type: cell-based; settings: Klebsiella pneumoniae, ATCC700603
Experimental: as §1, §2

[4] = test system: Acinetobacter baumannii B1931 clinical isolate; experiment: Study 4 - MIC by broth micro-dilution (CLSI); assay type: cell-based; settings: Acinetobacter baumannii
Experimental: as §1, §2

[5] = test system: Escherichia coli ATCC 25922; experiment: Study 4 - MIC by broth micro-dilution (CLSI); assay type: cell-based; settings: Escherichia coli, ATCC25922
Experimental: as §1, §2

[6] = test system: Enterobacter cloacae B1966 clinical isolate; experiment: Study 4 - MIC by broth micro-dilution (CLSI); assay type: cell-based
Experimental: as §1, §2

[7] = test system: Haemophilus influenzae ATCC 49247; experiment: Study 4 - MIC by broth micro-dilution (CLSI); assay type: cell-based; settings: Haemophilus influenzae, ATCC49247; G = H. influenzae ATCC 49247; read-out: MIC
Experimental: as §1, §2

[8] = test system: Escherichia coli ATCC 25922 TolC deficient mutant (E. coli EFFLUX del); experiment: microbe, parasite or virus in culture; assay type: cell-based; settings: Escherichia coli, ATCC25922
Experimental: as §1, §2

E. Coli LeuRS, sequence (P07813 whole entry): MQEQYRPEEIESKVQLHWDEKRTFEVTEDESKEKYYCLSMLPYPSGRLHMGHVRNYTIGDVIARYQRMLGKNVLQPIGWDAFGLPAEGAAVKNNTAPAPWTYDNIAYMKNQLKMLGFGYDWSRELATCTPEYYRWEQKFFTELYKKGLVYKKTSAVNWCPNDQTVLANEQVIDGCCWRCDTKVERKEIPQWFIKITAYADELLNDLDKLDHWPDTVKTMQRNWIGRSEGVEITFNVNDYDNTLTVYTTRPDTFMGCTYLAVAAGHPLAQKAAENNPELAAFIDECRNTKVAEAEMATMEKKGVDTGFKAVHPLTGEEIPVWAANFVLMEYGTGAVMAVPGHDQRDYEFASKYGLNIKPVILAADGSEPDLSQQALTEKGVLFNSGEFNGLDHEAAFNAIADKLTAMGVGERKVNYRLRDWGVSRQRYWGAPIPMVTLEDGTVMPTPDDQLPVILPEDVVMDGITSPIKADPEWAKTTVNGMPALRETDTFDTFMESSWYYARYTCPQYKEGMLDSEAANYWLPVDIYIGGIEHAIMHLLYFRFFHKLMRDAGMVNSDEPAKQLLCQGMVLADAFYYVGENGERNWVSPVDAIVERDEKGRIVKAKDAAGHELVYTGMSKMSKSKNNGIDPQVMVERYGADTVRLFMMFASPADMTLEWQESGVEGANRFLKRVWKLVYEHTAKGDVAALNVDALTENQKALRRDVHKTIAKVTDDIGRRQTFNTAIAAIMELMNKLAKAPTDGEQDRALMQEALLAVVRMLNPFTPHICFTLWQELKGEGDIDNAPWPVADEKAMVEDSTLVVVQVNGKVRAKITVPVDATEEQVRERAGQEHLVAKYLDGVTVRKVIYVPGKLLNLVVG

| SMILES | IC50 at 24 h [1] | Kd (E. Coli LeuRS) | ΔG (E. Coli LeuRS) | ΔH (E. Coli LeuRS) | MIC [2] | MIC [3] | MIC [4] | MIC [5] | MIC ([6]; Enterobacter cloacae) | MIC [7] | other results |
| --- | --- | --- | --- | --- | --- | --- | --- | --- | --- | --- | --- |
| COc1cccc([S+]([O-])NC(=O)C(N)CC(C)C)c1 (stereo not drawn) [4.14] | > 64 µg/mL | 4.02 ± 0.38 nM | -11.45 ± 0.06 kcal/mol | -12.35 ± 0.04 kcal/mol | 64 µg/mL (≈ 225 µM) | 16 µg/mL (≈ 56.3 µM) | 32 µg/mL (≈ 113 µM) | 8 µg/mL (≈ 28.1 µM) | 32 µg/mL (≈ 113 µM) | 8 µg/mL (≈ 28.1 µM) |  |
| CC(C)CC(N)C(=O)N[S+]([O-])c1ccc(C(C)(C)C)cc1 (stereo not drawn) [4.28] | > 64 µg/mL |  |  |  |  |  |  |  |  |  |  |
| CC[C@H]1OC(=O)[C@H](C)[C@@H](O[C@H]2C[C@@](C)(OC)[C@@H](O)[C@H](C)O2)[C@H](C)[C@@H](O[C@@H]2O[C@H](C)C[C@H](N(C)C)[C@H]2O)[C@](C)(O)C[C@@H](C)CN(C)[C@H](C)[C@@H](O)[C@]1(C)O [Azithromycin] |  |  |  |  |  |  |  |  |  | 2 µg/mL (≈ 2.67 µM) | MIC [8]: 0.5 µg/mL (≈ 0.668 µM); MIC ([2]; E = P. aeruginosa ATCC 27853, read-out: MIC): 32 µg/mL (≈ 42.7 µM); MIC ([3]; D = KI. pneumoniae ATCC 700603, read-out: MIC): 32 µg/mL (≈ 42.7 µM); MIC ([4]; F = A. baumannii B1931, read-out: MIC): 16 µg/mL (≈ 21.4 µM); MIC ([5]; A = E. coli ATCC 25922, read-out: MIC): 4 µg/mL (≈ 5.34 µM); MIC ([6]; C = Enterobacter cloacae B1966, read-out: MIC): 16 µg/mL (≈ 21.4 µM) |
| CC(C)C(N)C(=O)N[S+]([O-])c1ccccc1 (stereo not drawn) [4.5] | > 32 µg/mL |  |  |  |  |  |  |  |  |  |  |
| CC(C)CC(N)C(=O)N[S+]([O-])c1cccc(F)c1 (stereo not drawn) [4.11] | > 64 µg/mL | 2.17 ± 0.08 nM | -11.82 ± 0.04 kcal/mol | -16.22 ± 0.60 kcal/mol | 64 µg/mL (≈ 235 µM) | 2 µg/mL (≈ 7.34 µM) | 8 µg/mL (≈ 29.4 µM) | 1 µg/mL (≈ 3.67 µM) | 4 µg/mL (≈ 14.7 µM) | 4 µg/mL (≈ 14.7 µM) |  |
| CC(C)CC(N)C(=O)N[S+]([O-])c1cccc(C#N)c1 (stereo not drawn) [4.19] | > 64 µg/mL | 3.35 ± 0.48 nM | -11.56 ± 0.09 kcal/mol | -8.49 ± 0.38 kcal/mol | > 64 µg/mL | 4 µg/mL (≈ 14.3 µM) | 64 µg/mL (≈ 229 µM) | 2 µg/mL (≈ 7.16 µM) | 8 µg/mL (≈ 28.6 µM) | 8 µg/mL (≈ 28.6 µM) |  |
| CC(C)CC(N)C(=O)N[S+]([O-])c1ccc2ccccc2c1 (stereo not drawn) [4.40] | > 64 µg/mL |  |  |  |  |  |  |  |  |  |  |
| CC(C)C[C@@H](N)C(=O)N[S+]([O-])c1ccccc1 (stereo partly drawn) [4.6] | > 32 µg/mL |  |  |  |  |  |  |  |  |  |  |
| CC(C)CC(N)C(=O)N[S+]([O-])c1cccc2ccccc12 (stereo not drawn) [4.39] | 46 µg/mL (≈ 151 µM) | 12.8 ± 1.6 nM | -10.77 ± 0.08 kcal/mol | -9.29 ± 0.62 kcal/mol | > 64 µg/mL | 64 µg/mL (≈ 210 µM) | 64 µg/mL (≈ 210 µM) | 16 µg/mL (≈ 52.6 µM) | 64 µg/mL (≈ 210 µM) | 8 µg/mL (≈ 26.3 µM) |  |
| CC(C)CC(C)(N)C(=O)N[S+]([O-])c1ccccc1 (stereo not drawn) [4.7] | > 64 µg/mL | 1820 ± 256 nM | -7.84 ± 0.09 kcal/mol | -1.66 ± 0.75 kcal/mol |  |  |  |  |  |  |  |
| CC(C)CC(N)C(=O)N[S+]([O-])c1cccs1 (stereo not drawn) [4.41] | > 64 µg/mL |  |  |  |  |  |  |  |  |  |  |
| CCC(N)C(=O)N[S+]([O-])c1cccc(F)c1 (stereo not drawn) [4.10] | > 64 µg/mL |  |  |  |  |  |  |  |  |  |  |
| Cc1cccc([S+]([O-])NC(=O)C(N)CC(C)C)c1 (stereo not drawn) [4.13] | > 64 µg/mL | 6.62 ± 1.36 nM | -11.16 ± 0.12 kcal/mol | -8.69 ± 1.09 kcal/mol | > 64 µg/mL | 16 µg/mL (≈ 59.6 µM) | 32 µg/mL (≈ 119 µM) | 8 µg/mL (≈ 29.8 µM) | 32 µg/mL (≈ 119 µM) | 16 µg/mL (≈ 59.6 µM) |  |
| Cc1ccc([S+]([O-])NC(=O)C(N)CC(C)C)c(F)c1 (stereo not drawn) [4.38] | > 64 µg/mL |  |  |  |  |  |  |  |  |  |  |
| CCC(C)C(N)C(=O)N[S+]([O-])c1ccccc1 (stereo not drawn) [4.2] | > 32 µg/mL |  |  |  |  |  |  |  |  |  |  |
| NC(Cc1ccccc1)C(=O)N[S+]([O-])c1ccccc1 (stereo not drawn) [4.8] | > 64 µg/mL |  |  |  |  |  |  |  |  |  |  |
| NC(C(=O)N[S+]([O-])c1ccccc1)c1ccccc1 (stereo not drawn) [4.9] | > 64 µg/mL |  |  |  |  |  |  |  |  |  |  |
| CCCC(N)C(=O)N[S+]([O-])c1ccccc1 (stereo not drawn) [4.4] | > 64 µg/mL | 159 ± 29.4 nM | -9.28 ± 0.11 kcal/mol | -9.06 ± 0.28 kcal/mol |  |  |  |  |  |  |  |
| CC(C)CC(N)C(=O)N[S+]([O-])c1cccc(Cl)c1 (stereo not drawn) [4.12] | > 64 µg/mL |  |  |  | 16 µg/mL (≈ 55.4 µM) | 4 µg/mL (≈ 13.9 µM) | 16 µg/mL (≈ 55.4 µM) | 2 µg/mL (≈ 6.93 µM) | 8 µg/mL (≈ 27.7 µM) | 4 µg/mL (≈ 13.9 µM) |  |
| CSCCC(N)C(=O)N[S+]([O-])c1ccccc1 (stereo not drawn) [4.3] | > 64 µg/mL |  |  |  |  |  |  |  |  |  |  |
| COCc1cccc([S+]([O-])NC(=O)C(N)CC(C)C)c1 (stereo not drawn) [4.23] |  | 17.5 ± 1.1 nM | -10.58 ± 0.03 kcal/mol | -7.06 ± 0.75 kcal/mol |  |  |  |  |  |  |  |
| CC(C)CC(N)C(=O)N[S+]([O-])c1cccc(Br)c1 (stereo not drawn) [4.15] | > 64 µg/mL | 10.6 ± 0.39 nM | -10.88 ± 0.03 kcal/mol | -10.74 ± 0.16 kcal/mol | 64 µg/mL (≈ 192 µM) | 16 µg/mL (≈ 48 µM) | 64 µg/mL (≈ 192 µM) | 8 µg/mL (≈ 24 µM) | 32 µg/mL (≈ 96 µM) | 8 µg/mL (≈ 24 µM) |  |
